Here are results for six compounds from patent US5498624A, “Selected pyrazolyl derivatives” (Monsanto Company, priority 1995, dated 1996).

Assay type in all cases: in vivo
The subject of one test is Septoria nodorum. Kind of test: Wheat Glume Blotch Foliar Assay, protectant (WGB Prot). Particulars: application two days pre-inoculation. The protocol:
A) Host Propagation--Winter wheat plants, cv. Caldwell, are grown in 5.7 cm^2 pots, three per pot, and maintained in a growth chamber set at 20° C., 80% RH with a 12 hour photoperiod.
B) Compound Preparation--A 1.0% stock solution of each of the compounds of the present invention is first prepared utilizing an appropriate solvent such as acetone, water or DMSO. This stock is then used to prepare the final spray solution which contains the compound at the desired dosage, eg 100 ppm and 20 ppm, acetone at 20% v/v, Tween®20 at .05% w/v, and water at about 80%. Commercial standard used is tebuconazole at equivalent rates.
C) Compound Application, Seedlings are sprayed at the two-leaf stage (GS 12) using a DeVilbiss Model 152 hand operated sprayer set at 15-20 psi. Six ml of the test solution per treatment are applied to three pots. In the protectant assay (EXAMPLE 8), the compound application is made two days pre-inoculation. In the curative assay (EXAMPLE 9), the compound is applied during a brief interruption of the disease incubation period two days post-inoculation.
D) Pathogen Production/Inoculation--The wheat glume blotch fungus, Septoria nodorum, is maintained in the pycnidial state on yeast malt agar (YMA) and transferred weekly by streaking a suspension of conidia obtained from a ten to twelve day old sporulating culture onto fresh YMA plates. The plates are incubated at 20° C. with a 12 hour photoperiod.
Test inoculum is prepared by flooding seven day old culture plates with deionized water amended with Tween®20 (0.1% v/v) and gently scraping the pycnidia to release the extruding masses of conidia. The resulting spore suspension is filtered through two layers of cheese cloth and adjusted to 4×10^6 spores/ml utilizing the Tween®20 solution.
Forty-eight hours after the compound application and prior to inoculation, the test plants are preconditioned for at least one hour in a dark growth chamber set at 20° C. and 100% RH. After the preconditioning period is over, the conidial suspension is applied to run-off using a DiVilbiss hand operated sprayer. The plants are then returned to the preconditioning chamber and incubated at the same settings for 96 hours. Light is supplied to the plants during the last twelve hours of incubation. At the end of the 96 hour period, the plants are returned to the environmental conditions under which they were grown.
E) Test Evaluation--Eight to ten days after removal from the high humidity chamber, or twelve to fourteen days after inoculation, treatments are evaluated by visually estimating the percentage of the leaf area (on the first leaf) covered with lesions. Three ratings are made on each pot which constitutes a replicate. Each replicate then receives a numerical mean by averaging the three values. Percent disease, as well as percent control values are calculated. The percent control values obtained from these assays for the compounds of the present invention are as set out in the Table below.

For another test, the system named is Botrytis cinerea. The test can be described thus: Vine Grey Mold on Berries (VGM Cur). The following applies: grape berries, treated 24 hours after inoculation. On the procedure: Vine Grey Mold on Berries (VGM Cur)--Assay is as set out above in EXAMPLE 11 except for step E) which is: Test Execution--In the curative test the berries are first inoculated as described, six per petri plate and placed in incubation. After 24 hours, the berries are temporarily removed from incubation, placed into 12-well tissue culture plates (one per well), treated, and then returned to incubation.

Another test relates to Wheat Leaf Rust. Kind of test: Wheat Leaf Rust Foliar Assay (WLR Prot). The following applies: 20 ppm foliar protectant. The protocol: A) Pathogen/Inoculum Production--Urediospores of previously infected plants are collected using a small vacuum device and stored in glass vials at -2° C. Just before inoculation the requisite number of vials are warmed and the spores suspended in Soltrol, a light machine oil.
(B) Host Propagation, (C) Compound Preparation and (D) Compound Application follow as per Example 1.
E) Inoculation/Incubation--To inoculate the plants, the urediospore/Soltrol suspension, adjusted to 5×10^4 spores/ml, is applied in a light coating to the foliage, and the plants are placed in a mist tent for 12 to 18 hours at 20° C. in the dark. The test can then be returned to the previous growing conditions until foliar symptoms are evident and the plants can be assessed.
F) Test Evaluation--About 7 days after the plants are removed from the mist tent, the rust lesions should be evident. Three leaves in each pot (replicate) are assessed for percent infection. Phytotoxicity and growth effects are also noted at this time.
G) Data--Follows as per Example 1.

For test [1], the system named is Erysiphe graminis f. sp. hordei. Kind of test: Barley Powdery Mildew Foliar Assay (BPM Prot). Particulars: inoculation 24 hours after application. On the procedure: A) Pathogen/Inoculum Production--Leaf material infected with the barley powdery mildew fungus, Erysiphe graminis f. sp. hordei, is maintained continuously on barley seedlings, cv. Perry.
B) Host Propagation--Barley seedlings, cv. Perry, are grown to second leaf stage in a commercial soil preparation, "Metro Mix 200", amended with 100 gm/ft^3 slow release "Osmocote 14-14-14". A sufficient number of seeds are planted per pot (5 cm in diameter) in order to insure the production of 3-5 vigorous seedlings per pot. The plants are maintained in a growth chamber set at 21° C., 80% RH with a 12 hour photoperiod. Light intensity is set at 300 me/m^2/ sec.
C) Test Compound Preparation
1) Experimental compounds--Each or the compounds of the present invention are applied at 500, 100, and 20 ppm. Formulation is generally in […], 59.95% water, and 0.05% Tween 20. Four pots (with 3-5 plants/pot) at each rate are treated. The application volume is 8 ml per treatment. Formulated materials, such as commercially available products, are brought up to the appropriate treatment volume with water containing Tween®20,05% v/v.
2) Controls and standards--The commercial standards used are Corbel® (active ingredient fenpropimorph) and NUSTAR® (active ingredient flusilazole), both at the rate of 20 and/or 10 ppm. A set of control plants, treated with the formulation blank and inoculated, are also included.
D) Compound Application--Compound is sprayed onto the leaves of the plants (pots positioned on a rotating table) using a DeVilbiss Model 152 hand sprayer. Coverage of the first leaf is essential. After the plants have thoroughly dried they are returned to the growth room and randomized.
E) Inoculation/Incubation--Inoculation of the test plants takes place 24 hours after compound application. Inoculation is accomplished by gently shaking plants previously infected with the Erysiphe graminis f. sp. hordeii fungus over the test plants. This process liberates a cloud of spores which effectively and uniformly fall onto the test plants. After inoculation the plants are returned to the environmental conditions under which they were grown.
F) Evaluation--The test is assessed 6-7 days after inoculation. Treatments are evaluated by visually estimating the percentage of the leaf area infected on the first leaf. Three ratings are made on each pot (replicate). Phytotoxicity and growth effects are also noted at this time.
G) Data--All replicate data is recorded as a percent disease value. Treatment means are calculated and percent disease control is determined by the formula: (control mean--treatment mean)*100/control mean. The inoculated control treatment mean is used for this calculation. The percent protection values for the compounds of the present invention are as set out in the Table below.

Regarding `C[C@@H]1CCC[C@H](c2ccccc2NC(=O)c2cn(C)nc2C(F)F)C1` (relative stereo) [Number 2, 1H-pyrazole-4-carboxamide, 3-(difluoromethyl)-1-methyl-N-[2-(-3-methylcyclohexyl)phenyl]-, cis-], the “WGB Prot percent control” value in the test on Septoria nodorum (20 ppm, * = averaged value) is given as 56%; in the test with Septoria nodorum (100 ppm, * = averaged value) it was 86%; with Septoria nodorum (500 ppm, wheat), 99%. The “VGM Cur percent disease control” value with Botrytis cinerea (20 ppm) was 41%; in the test with Botrytis cinerea (50 ppm), 82%. Moreover, in the test with Wheat Leaf Rust, the “WLR Prot percent disease control” value worked out at 96%. Moreover, the “BPM Prot percent disease control” value in test [1] (20 ppm foliar) came out at 90%; in test [1] (100 ppm foliar) it was 96%; in test [1] (500 ppm foliar) it was 85%.
`C[C@H]1CCC[C@H](c2ccccc2NC(=O)c2cn(C)nc2C(F)F)C1` (relative stereo) [Number 3, 1H-pyrazole-4-carboxamide, 3-(difluoromethyl)-1-methyl-N-[2-(3-methylcyclohexyl)phenyl]-, trans-]: the “WGB Prot percent control” value turned out to be 79% with Septoria nodorum (20 ppm, * = averaged value) and 90% in the test on Septoria nodorum (100 ppm, * = averaged value). The “VGM Cur percent disease control” value was determined as 84% in the test on Botrytis cinerea (20 ppm) and 90% in the test on Botrytis cinerea (50 ppm). Further, the “WLR Prot percent disease control” value in the test on Wheat Leaf Rust is reported as 100%. In addition, the “BPM Prot percent disease control” value in test [1] (20 ppm foliar) and in test [1] (100 ppm foliar) was 98% in each case.
On to `Cn1cc(C(=O)Nc2ccccc2[C@@H]2CCC[C@@H](C(F)(F)F)C2)c(C(F)F)n1` (relative stereo) [Number 6], for which the “WGB Prot percent control” value with Septoria nodorum (20 ppm, * = averaged value) is 70%; in the test on Septoria nodorum (100 ppm, * = averaged value), 86%; with Septoria nodorum (500 ppm, wheat), 89%.
`CC[C@H]1CC[C@@H](c2ccccc2NC(=O)c2cn(C)nc2C(F)F)CC1` [Number 1, 1H-pyrazole-4-carboxamide, 3-(difluoromethyl)-N-[2-(4-ethylcyclohexyl)phenyl]-1-methyl-, cis-]: in test [1] (500 ppm foliar), the “BPM Prot percent disease control” value was 88%.
On to `Cn1cc(C(=O)Nc2ccccc2[C@H]2CC[C@H](C)CC2)c(C(F)(F)F)n1` [Number 4, 1H-pyrazole-4-carboxamide, 1-methyl-N-[2-(4-methylcyclohexyl)phenyl]-3-(trifluoromethyl)-, trans-], for which the “WGB Prot percent control” value in the test on Septoria nodorum (20 ppm, * = averaged value) turned out to be 81%; in the test with Septoria nodorum (100 ppm, * = averaged value), 97%. The “VGM Cur percent disease control” value is 19% in the test with Botrytis cinerea (20 ppm) and 69% with Botrytis cinerea (50 ppm).
In the case of `Cn1cc(C(=O)Nc2ccccc2C2CCC(C)(C)CC2)c(C(F)F)n1` [Number 5, 1H-pyrazole-4-carboxamide, 3-(difluoromethyl)-N-(2-(4,4-dimethylcyclohexyl)phenyl]-1-methyl-], the “WGB Prot percent control” value with Septoria nodorum (20 ppm, * = averaged value) is listed as 47%; in the test on Septoria nodorum (100 ppm, * = averaged value) it was 93%.
